Measurements: ChEMBL document CHEMBL1687691, “From taxuspine x to structurally simplified taxanes with remarkable p-glycoprotein inhibitory activity” (ACS Med Chem Lett, 2010)

Columns and labels:
[1] = biological target: T1, ATP-dependent translocase ABCB1 (Homo sapiens, UniProt P08183); experiment: Inhibition of human MDR1 expressed in mouse L5178 cells assessed as increase in intracellular accumulation of rhodamine 123 AT 0.1 mM by FACSCalibur flow cytometry; assay type: cell-based; details: l5178, 100 µM
[2] = biological target: T1, ATP-dependent translocase ABCB1; experiment: Inhibition of human MDR1 expressed in mouse L5178 cells assessed as increase in intracellular accumulation of rhodamine 123 by FACSCalibur flow cytometry; assay type: cell-based

T1 sequence (P08183 whole entry): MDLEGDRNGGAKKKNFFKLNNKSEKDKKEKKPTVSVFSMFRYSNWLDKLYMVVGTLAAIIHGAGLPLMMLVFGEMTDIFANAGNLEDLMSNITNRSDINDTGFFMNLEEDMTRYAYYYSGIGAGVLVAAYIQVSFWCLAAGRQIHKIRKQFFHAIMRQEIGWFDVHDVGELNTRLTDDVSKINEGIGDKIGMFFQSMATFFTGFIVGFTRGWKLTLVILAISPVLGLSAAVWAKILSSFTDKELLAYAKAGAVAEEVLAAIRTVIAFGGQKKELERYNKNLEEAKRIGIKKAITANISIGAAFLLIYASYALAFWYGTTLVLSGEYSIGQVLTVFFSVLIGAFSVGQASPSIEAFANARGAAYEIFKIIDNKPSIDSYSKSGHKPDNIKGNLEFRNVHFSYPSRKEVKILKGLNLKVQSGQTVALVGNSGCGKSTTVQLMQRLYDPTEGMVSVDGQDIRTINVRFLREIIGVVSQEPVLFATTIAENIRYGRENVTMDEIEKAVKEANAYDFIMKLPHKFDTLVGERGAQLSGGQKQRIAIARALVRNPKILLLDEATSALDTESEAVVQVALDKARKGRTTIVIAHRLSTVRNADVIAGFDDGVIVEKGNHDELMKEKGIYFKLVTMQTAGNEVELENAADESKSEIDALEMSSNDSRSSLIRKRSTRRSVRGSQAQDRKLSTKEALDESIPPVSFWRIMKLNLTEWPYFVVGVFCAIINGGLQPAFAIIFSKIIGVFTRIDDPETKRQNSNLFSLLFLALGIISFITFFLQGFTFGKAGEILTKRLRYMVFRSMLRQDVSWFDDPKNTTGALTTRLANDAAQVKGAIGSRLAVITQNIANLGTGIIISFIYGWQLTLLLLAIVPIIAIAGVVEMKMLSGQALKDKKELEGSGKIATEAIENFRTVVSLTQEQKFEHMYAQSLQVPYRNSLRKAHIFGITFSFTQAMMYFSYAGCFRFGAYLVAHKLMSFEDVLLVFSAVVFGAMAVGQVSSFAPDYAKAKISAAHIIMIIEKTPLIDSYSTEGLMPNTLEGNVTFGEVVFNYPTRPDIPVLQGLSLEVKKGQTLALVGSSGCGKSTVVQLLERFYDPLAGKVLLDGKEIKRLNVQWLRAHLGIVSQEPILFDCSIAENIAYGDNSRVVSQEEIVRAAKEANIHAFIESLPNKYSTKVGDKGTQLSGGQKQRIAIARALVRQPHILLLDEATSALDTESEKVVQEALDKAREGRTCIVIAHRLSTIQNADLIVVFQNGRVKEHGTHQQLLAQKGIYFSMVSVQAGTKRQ

Row | Alpha max [1] | IC50 [2] [µM] | SMILES
1 | 0.37 | – | COCCOCO[C@@H]1/C=C\COC(=O)/C=C/[C@@H](OC)[C@@H]2CCC(C)=C1C2(C)C
2 | 1 | 7.2 | COCCOCO[C@@H]1/C=C\COC(=O)/C=C/[C@@H](OC)[C@@H]2C[C@@H](OC(=O)c3ccccc3)C(C)=C1C2(C)C
3 | 1 | 24 | COCCOCO[C@@H]1/C=C\C(OC(C)=O)C(OC(C)=O)/C=C/[C@@H](OC)[C@@H]2CCC(C)=C1C2(C)C (stereo not given in full)
